From patent US20110060026A1, “Indoles Active on CRTH2 Receptor” (priority 2008, published 2011)
pKi: −log10 of the molar value.

Target: T1, CRTH2 receptor (Homo sapiens, UniProt Q9Y5Y4)
T1 construct: expressed in transfected cells; host or cells: HEK (human embryonic kidney) cells, membrane preparation
T1 sequence (Q9Y5Y4 1-395): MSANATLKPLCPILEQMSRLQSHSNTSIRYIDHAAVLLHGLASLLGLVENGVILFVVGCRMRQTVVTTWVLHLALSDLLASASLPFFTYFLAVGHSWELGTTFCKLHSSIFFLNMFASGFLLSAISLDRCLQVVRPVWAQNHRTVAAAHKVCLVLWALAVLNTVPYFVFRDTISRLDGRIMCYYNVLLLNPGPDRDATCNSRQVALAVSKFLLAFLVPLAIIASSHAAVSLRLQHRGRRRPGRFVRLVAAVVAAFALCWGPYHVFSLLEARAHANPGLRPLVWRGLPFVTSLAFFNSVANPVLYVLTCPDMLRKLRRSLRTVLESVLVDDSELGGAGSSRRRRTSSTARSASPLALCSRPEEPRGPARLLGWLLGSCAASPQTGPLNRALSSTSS
Assay: CRTH2 radioligand binding assay ([3H]-PGD2 displacement, SPA)
Conditions: HEK cell membranes expressing the CRTH2 receptor, 1 nM [3H]-PGD2; Ki from IC50 by Cheng-Prusoff equation
Experimental: Compounds of the invention were tested using the following biological test method to determine their ability to displace PGD2 from the CRTH2 receptor.
CRTH2 Radioligand Binding Assay
The receptor binding assay is performed in a final volume of 200 μL binding buffer [10 mM BES (pH 7.4), 1 mM EDTA, 10 mM manganese chloride, 0.01% BSA] and 1 nM [^3H]-PGD2 (Amersham Biosciences UK Ltd). Ligands are added in assay buffer containing a constant amount of DMSO (1% by volume). Total binding is determined using 1% by volume of DMSO in assay buffer and non-specific binding is determined using 10 μM of unlabeled PGD2 (Sigma). Human embryonic kidney (HEK) cell membranes (3.5 μg) expressing the CRTH2 receptor are incubated with 1.5 mg wheatgerm agglutinin SPA beads and 1 nM [^3H]-PGD2 (Amersham Biosciences UK Ltd) and the mixture incubated for 3 hours at room temperature. Bound [^3H]-PGD2 is detected using a Microbeta TRILUX liquid scintillation counter (Perkin Elmer). Compound IC50 value is determined using a 6-point dose response curve in duplicate with a semi-log compound dilution series. IC50 calculations are performed using Excel and XLf it (Microsoft), and this value is used to determine a Ki value for the test compound using the Cheng-Prusoff equation.

pKi: 7.18
SMILES: Cc1c(CC(=O)O)c2cc(F)ccc2n1Cc1ccccc1S(=O)(=O)c1ccc(F)cc1 [Example 1, {5-fluoro-1-[2-(4-fluorobenzenesulfonyl)benzyl]-2-methyl-1H-indol-3-yl}acetic acid]
